According to PubChem BioAssay (NCI):
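Growth conditions: 96-well plates. Treatment: test compound, 48 hours, 5 concentrations. Analysis: linear interpolation between bracketing concentrations; unreached endpoints set to highest concentration. GI50 marks 50% less growth. TGI: total growth inhibition.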

Columns and labels:
Experiment in all cases: NCI tumour cell line growth inhibition, 48 h
[1] = test system: DMS 273 small cell lung
[2] = test system: RXF-631 renal
[3] = test system: XF 498 CNS
[4] = test system: SNB-78 CNS
[5] = test system: M19-MEL melanoma
[6] = test system: HOP-18 NSCLC
[7] = test system: P388 leukemia
[8] = test system: P388/ADR leukemia
[9] = test system: SN12K1 renal

Structure (SMILES) | TGI [1] | TGI [2] | TGI [3] | TGI [4] | TGI [5] | TGI [6] | TGI [7] | TGI [8] | TGI [9] | GI50 [6]
COc1ccc(C(=O)O[C@H]2[C@@H]3C=CO[C@@H](OC4OC(CO)C(O)C(O)C4O)[C@@H]3[C@@]3(CO)O[C@@H]23)cc1O (some centres not stated) | > 100 µM | > 100 µM | > 100 µM | > 100 µM | > 100 µM |  |  |  |  | 
CCOc1ccc2[nH]c3c(C)c4ccncc4c(C)c3c2c1 | 1.64 µM | 2.61 µM | 2.16 µM | 3.12 µM | 3.1 µM |  |  |  |  | 
CCC1(N=[N+]=[N-])C(=O)c2ccccc2N(C)C1=O (configuration not stated) | > 100 µM |  |  | > 100 µM | > 100 µM | > 100 µM |  |  |  | 
Cc1c2ccncc2cc2c1[nH]c1ccccc12 | 4.96 µM |  | 1.89 µM | 93.3 µM | 10.9 µM | 7.35 µM | 5.52 µM | 7.46 µM | 9.44 µM | 
NC1=C(NC(=O)Cc2ccccc2F)C(=O)c2ccccc2C1=O | > 100 µM |  |  |  | 24.5 µM | > 100 µM |  |  |  | 
[N-]=[N+]=NC(c1cn(C2CC(O)C(CO)O2)c(=O)[nH]c1=O)C(Br)Br (configuration not stated) | > 100 µM |  |  | > 100 µM | > 100 µM | > 100 µM |  |  |  | 
N#CN/C(N)=N/C/N=C(\N)NC#N | > 100 µM | > 100 µM |  | > 100 µM | > 100 µM | > 100 µM |  |  |  | 
CCN(CC)CCCNc1ccc2nc(C)n3c4ccc(O)cc4c(=O)c1c23 | 13.4 µM | 17.4 µM | 23.3 µM | 19.6 µM | 23.8 µM | 25.7 µM |  |  |  | 
COc1ccc(C(c2c(O)c3ccccc3n(-c3ccccc3)c2=O)c2c(O)c3ccccc3n(-c3ccccc3)c2=O)cc1 | > 100 µM |  | > 100 µM | > 100 µM | > 100 µM | > 100 µM |  |  |  | 
CN(Cc1cnc2nc(N)nc(N)c2n1)c1ccc(C(=O)N[C@@H](CCC(=O)O)C(=O)O)cc1 | 210 µM |  | 184 µM | 213 µM | > 250 µM |  | 13.8 µM | 29.4 µM | 191 µM | 0.714 pM
O=c1cc(CO)oc2c3c(cc(O)c12)OCC(COC1OC(CO)C(O)C(O)C1O)=CC3 (configuration not stated) | > 100 µM |  |  | > 100 µM | > 100 µM | > 100 µM |  |  |  | 
CN(C(=O)C12C3C4C5C3C1(C(=O)C13C6C7C8C6C1C8C73)C5C42)C(C)(C)C (configuration not stated) | > 30 µM |  | > 50 µM | > 50 µM | > 50 µM | > 50 µM |  |  |  | 
C/C=C(/I)CBr |  | 36.2 µM | 27 µM | 93.9 µM | 28.6 µM |  |  |  |  | 
COc1ccc(N=NC(C(=O)c2ccccc2)C(=O)c2ccccc2)cc1 | 56.7 µM | > 100 µM | 71.9 µM |  |  |  |  |  |  | 
NC(=S)/N=C(/c1nc2ccc(Cl)cc2[nH]c1=O)C(O)c1ccccc1Cl (configuration not stated) | > 100 µM |  | > 100 µM |  |  | > 100 µM |  |  |  | 
